Measured values reported in patent US10711314B2, “Methods for diagnosing IDH-mutant cell proliferation disorders” (Agios Pharmaceuticals, Inc., priority 2009, dated 2020).
Values joined by “and” are separate entries in the source; they are usually repeats but may differ in a detail not shown here. Identical values can stand only once. Like-named read-outs stand apart in the source and are kept apart here. Blank lines part the entries; values can stand above or below the molecule they belong to.

Assays:
[1] = Reduction of alpha-ketoglutarate with NADH by IDH1 wild-type and mutants; format: biochemical, human
Procedure: In order to evaluate the ability of the mutant enzymes to utilize NADH in the reduction of alpha-ketoglutarate, the following experiment was conducted.

[2] = Enzyme kinetics of IDH1 wild-type and mutants in reduction of α-KG with NADPH; format: biochemical, human; conditions: for consumption of NADPH in reduction of α-KG: 40 ug/ml of enzyme
Procedure: In these reactions, substrate was varied while the cofactor was held constant at 500 uM. All reactions were performed in 50 mM potassium phosphate buffer, pH 6.5, 10% glycerol, 0.03% (w/v) BSA, 5 mM MgCl2, and 40 mM sodium hydrocarbonate. Reaction progress was followed by spectroscopy at 340 nM monitoring the change in oxidation state of the cofactor. Sufficient enzyme was added to give a linear change in absorbance for 10 minutes.

[3] = Enzyme kinetics of IDH1 wild-type and mutants in oxidative decarboxylation of isocitrate to α-KG; format: biochemical, human
Procedure: (§1) In these reactions, the substrate was varied while the cofactor was held constant at 500 uM. All reactions were performed in 150 mM NaCl, 20 mM Tris-Cl, pH 7.5, 10% glycerol, and 0.03% (w/v) BSA). Reaction progress was followed by spectroscopy at 340 nM monitoring the change in oxidation state of the cofactor. Sufficient enzyme was added to give a linear change in absorbance for 10 minutes.
All data was fit to the Hill equation by least-squares regression analysis.

[4] = IDH1/2 activity assay, forward reaction (isocitrate and NADP+); format: biochemical, human; conditions: Oxidative (→NADPH), recombinant IDH1; for Ki: inhibition by aKG; for Km: read-out: KM,isocitrate
Procedure: (§2) All reactions were performed in standard enzyme reaction buffer (150 mM NaCl, 20 mM Tris-Cl, pH 7.5, 10 mM MgCl2 and 0.03% (w/v) bovine serum albumin). For determination of kinetic parameters, sufficient enzyme was added to give a linear reaction for 1 to 5 seconds. Enzymatic binding constants were determined using curve fitting algorithms to standard kinetic models with the Sigmaplot software package (Systat Software, San Jose, Calif.). For determination of kcat, enzyme was incubated with 5×Km of substrate and cofactor; consumption of NADPH or NADP was determined by a change in the OD340 over time. In both cases an extinction coefficient of 6200 M^−1 cm^−1 was used for NADPH.

[5] = IDH1/2 activity assay, reverse reaction (α-KG and NADPH); format: biochemical, human; conditions: reductive (→NADP^+)
Procedure: as §2

[6] = target: T1, IDH1 R132H (Homo sapiens, UniProt O75874, R132H); assay: Inhibition of oxidative decarboxylation of isocitrate to α-KG by IDH1 R132H; format: biochemical
T1 construct: The resultant fragments for IDH1 (full length) and IDH2 (residues 40-452) were cloned into vector pET41a; made in house; host or cells: E. coli
T1 sequence (O75874 whole entry R132H, the tested form may be a part): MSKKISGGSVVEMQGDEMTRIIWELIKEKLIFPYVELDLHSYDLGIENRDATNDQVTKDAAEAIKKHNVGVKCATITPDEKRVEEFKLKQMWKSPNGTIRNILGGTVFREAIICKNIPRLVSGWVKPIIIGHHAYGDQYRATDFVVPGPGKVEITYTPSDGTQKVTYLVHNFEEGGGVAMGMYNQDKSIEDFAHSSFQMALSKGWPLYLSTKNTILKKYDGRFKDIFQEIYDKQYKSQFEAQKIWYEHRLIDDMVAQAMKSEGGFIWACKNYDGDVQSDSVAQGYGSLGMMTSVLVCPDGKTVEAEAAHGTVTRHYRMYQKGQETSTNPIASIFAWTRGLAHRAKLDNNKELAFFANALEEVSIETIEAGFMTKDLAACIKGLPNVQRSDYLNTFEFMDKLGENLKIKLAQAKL
Procedure: as §1
(§3) A well-known regulatory mechanism for control of metabolic enzymes is feedback inhibition, in which the product of the reaction acts as a negative regulator for the generating enzyme.
(§4) Final concentrations: Tris 7.5 20 mM, NaCl 150 mM, MnCl2 2 mM, Glycerol 10%, BSA 0.03%, NADP 0.5 mM, IDH1 wt 1.5 ug/ml, IDH1R132S 30 ug/ml, IDH1R132H 60 ug/ml, DL-isocitrate (5-650 uM).

[7] = target: T2, IDH1 R132S (Homo sapiens, UniProt O75874, R132S); assay: Inhibition of oxidative decarboxylation of isocitrate to α-KG by IDH1 R132S; format: biochemical
T2 construct: The resultant fragments for IDH1 (full length) and IDH2 (residues 40-452) were cloned into vector pET41a; made in house; host or cells: E. coli Rosetta
T2 sequence (O75874 whole entry R132S, the tested form may be a part): as the sequence (O75874 whole entry R132H, the tested form may be a part) above, with H132S counted along it
Procedure: as §1, §3, §4

[8] = target: T3, IDH1 wild-type (Homo sapiens, UniProt O75874); assay: Inhibition of oxidative decarboxylation of isocitrate to α-KG by IDH1 wild-type; format: biochemical; conditions: for effect on the oxidative decarboxylation of isocitrate by wild-type ICDH1: added in a titration series
T3 construct: The resultant fragments for IDH1 (full length) and IDH2 (residues 40-452) were cloned into vector pET41a; made in house; host or cells: E. coli Rosetta
T3 sequence (O75874 whole entry, the tested form may be a part): as the sequence (O75874 whole entry R132H, the tested form may be a part) above, with H132R counted along it
Procedure: as §1, §3, §4
A reaction containing the wild-type ICDH1, NADP, and α-KG was assembled (under conditions as described above) to which was added in a titration series either (R)-2-hydroxyglutarate or the reaction product of the ICDH1 […] mutant reduction of α-KG to 2-hydroxyglutarate.

[9] = target: LDHa (Homo sapiens, UniProt P00338); assay: LDHa IC50 (Table 24a); format: biochemical
[10] = target: LDHb (Homo sapiens, UniProt P07195); assay: LDHb IC50 (Table 24a); format: biochemical
LDHb, sequence (P07195 whole entry, species assumed): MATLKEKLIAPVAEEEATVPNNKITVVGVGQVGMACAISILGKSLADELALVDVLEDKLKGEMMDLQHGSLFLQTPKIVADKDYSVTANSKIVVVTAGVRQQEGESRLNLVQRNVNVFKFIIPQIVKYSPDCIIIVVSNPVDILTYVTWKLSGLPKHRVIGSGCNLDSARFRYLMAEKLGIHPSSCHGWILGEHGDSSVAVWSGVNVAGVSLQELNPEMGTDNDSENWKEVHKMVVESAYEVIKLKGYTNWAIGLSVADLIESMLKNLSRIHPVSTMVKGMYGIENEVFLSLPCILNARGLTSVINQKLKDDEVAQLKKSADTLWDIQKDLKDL

[11] = target: T1, IDH1 R132H; assay: High throughput screening for IDH1 R132H inhibitors (NADPH/αKG, resazurin detection); format: biochemical; conditions: for IC50 Ratio (40/4): ratio of ICDH IC50 at 40 uM vs 4 uM NADPH
Procedure: Assays were conducted in a volume of 76 ul assay buffer (150 mM NaCl, 10 mM MgCl2, 20 mM Tris pH 7.5, 0.03% bovine serum albumin) as follows in a standard 384-well plate: To 25 ul of substrate mix (8 uM NADPH, 2 mM αKG), 1 ul of test compound was added in DMSO. […] The reaction was incubated for 50 minutes at room temperature, then 25 ul of detection mix (30 uM resazurin, […]) was added and the mixture further incubated for 5 minutes at room temperature. The conversion of resazurin to resorufin was detected by fluorescent spectroscopy at Ex544 Em590 c/o 590.
(§5) The selectivity between wild type vs mutant could be >20-fold.

[12] = target: T4, IDH1 wt (Homo sapiens, UniProt O75874); assay: IDH1 wt assay (wild type vs mutant selectivity); format: biochemical
T4 construct: The resultant fragments for IDH1 (full length) and IDH2 (residues 40-452) were cloned into vector pET41a; made in house; host or cells: E. coli
T4 sequence (O75874 whole entry, the tested form may be a part): as the sequence (O75874 whole entry R132H, the tested form may be a part) above, with H132R counted along it
Description: as §5

[13] = Recombinant IDH1 enzyme assays (stopped-flow, 340 nm); format: biochemical, human; conditions: NADP+-dependent oxidative decarboxylation of isocitrate, vs wild-type
Procedure: 293T and the human glioblastoma cell lines U87MG and LN-18 were cultured in DMEM, 10% fetal bovine serum. Cells were transfected and selected using standard techniques. Protein expression levels were determined by Western blot analysis using IDHc antibody (Santa Cruz Biotechnology), IDH1 antibody (proteintech), MYC tag antibody (Cell Signaling Technology), and IDH2 antibody (Abcam). Metabolites were extracted from cultured cells and from tissue samples according to close variants of a previously reported method (Lu, W., Kimball, E. & Rabinowitz, J. D. J Am Soc Mass Spectrom 17, 37-50 (2006)), using 80% aqueous methanol (−80° C.) and either tissue scraping or homogenization to disrupt cells. […] For enzyme assays using recombinant IDH1 enzyme, proteins were produced in E. coli and purified using Ni affinity chromatography followed by Sephacryl S-200 size-exclusion chromatography. […] Chirality of 2HG was determined as described previously (Struys, E. A., Jansen, E. E., Verhoeven, N. M. & Jakobs, C. Clin Chem 50, 1391-5 (2004)). […] The IDH1 mutation status of each sample was determined using standard molecular biology techniques as described previously (Yan, H. et al. N Engl J Med 360, 765-73 (2009)). Metabolites were extracted and analyzed by LC-MS/MS as described above. […]

[14] = tested on: glioblastoma multiforme; conditions: glioblastoma multiforme patients; cited from earlier work
[15] = NADH 0.5 mM, alpha-Ketoglutarate 5 mM

consumption of NADPH in reduction of α-KG [2]: unable to consume NADPH
Ki [4]: 610 µM
Molecule: Wt: recombinant wild type IDH1 with C-terminal His8 tag expressed in E. coli
consumption of NADH in the presence of alpha-ketoglutarate [1, 15]: no measurable consumption of NADH
kcat [4]: 130000 s⁻¹
Km [4]: 0.057 mM
kcat(s^−1) ([5]; WT value estimated (est.)): ~7 (est.) s^−1

Ki ([6]; IDH1R132H 60 ug/ml, competitive with isocitrate, NADP 0.5 mM, read-out: Oxalomalate Ki): 951 µM
susceptibility to inhibition by oxalomalate ([6]; R132H mutation compared with wt): essentially unaffected
Ki ([7]; IDH1R132S 30 ug/ml, competitive with isocitrate, NADP 0.5 mM, read-out: Oxalomalate Ki): 510 µM
Ki ([8]; IDH1 wt 1.5 ug/ml, competitive with isocitrate, NADP 0.5 mM, read-out: Oxalomalate Ki): 955 µM
Molecule: O=C(O)C(=O)C(C(=O)O)C(O)C(=O)O (stereo not shown) [Oxalomalate, oxalomalate]
susceptibility to inhibition by oxalomalate ([7]; R132S mutation compared with wt): approximately a two-fold increase in susceptibility

IC50 [9]: 8.61 µM
IC50 [10]: > 100 µM
IC50 Ratio (40/4) [11]: 1.15
Molecule: O=C1NC(=S)S/C1=C\c1cccc(OC(=O)c2cccc(F)c2)c1

IC50 [9]: 12.8 µM
IC50 [10]: > 100 µM
IC50 Ratio (40/4) [11]: 1.39
Molecule: O=C1NC(=S)S/C1=C/c1cccc(OCc2ccc([N+](=O)[O-])cc2)c1

IC50 [9]: 5.92 µM
IC50 [10]: 17.4 µM
IDH1wt IC50 @ 1x Km (uM) ([12]; 1x Km of NADPH): NO inhibition
IC50 Ratio (40/4) [11]: 3.38
Molecule: Cc1ccc(C2=NN(c3ccccc3)C(c3cn(CCC(=O)O)nc3-c3ccccc3)C2)cc1 (stereo not shown) [drawing 31]

inhibition of IDH1 wt ([12]; even at 100 uM, 1× Km of NADPH): no inhibition
Molecule: Cc1ccc(C2=NN(c3ccccc3)C(c3cn(CCC(=O)O)nc3-c3ccccc3)C2)cc1 (stereo not shown) [second example]

IC50 when assayed at 100×Km ([11]; IDH1R132H at 100× Km of NADPH): shifted significantly
IC50 ([11]; IDH1R132H, presumably at 10× Km of NADPH): 5.74 µM
Molecule: Cc1c(C=C2Sc3ccccc3C2=O)c(O)n2c(nc3ccccc32)c1C#N [first example]

Ki [6]: 28.6 µM
Ki [7]: 45.3 µM
Ki [8]: 612 µM
Molecule: O=C(O)CCC(=O)C(=O)O [α-KG, α-ketoglutarate]

IC50 [9]: 33.8 µM
IC50 [10]: > 100 µM
IC50 Ratio (40/4) [11]: 1.28
Molecule: Cc1cc(C(=O)O)ccc1-c1ccc(/C=C2/NC(=O)N(Cc3ccc(Br)cc3)C2=O)o1

Further lines, the molecule ahead of its results:

Molecule: R132S: recombinant IDH1 Arg132Ser mutant with C-terminal His8 tag expressed in E. coli
consumption of NADH in the presence of alpha-ketoglutarate [1, 15]: demonstrated the ability to utilize NADH
Umol/min/mg ([1]; consumption of NADH, individual determinations): 0.7183 Umol/min/mg and 0.6997 Umol/min/mg
Rate (ΔA/sec) ([1]; consumption of NADH, individual determinations, NADH 0.5 mM, alpha-Ketoglutarate 5 mM): 0.001117 ΔA/sec and 0.001088 ΔA/sec
Rate (ΔA/sec) Mean ([1]; consumption of NADH, mean): 0.001103 ΔA/sec
Umol/min/mg Mean ([1]; consumption of NADH, mean): 0.709 Umol/min/mg
consumption of NADPH in reduction of α-KG [2]: reduced α-KG and consumed NADPH
Ki ([2]; uncompetitive substrate inhibition by α-KG): 24.6 mM
Hill Constant ([2]; α-KG): 0.479
Vmax ([2]; α-KG varied, NADPH 500 uM, pH 6.5): 2.7 µmol/min/mg
increase in Km ([3]; Km for isocitrate compared to wild-type): 20,000 fold
Vmax ([3]; isocitrate varied, cofactor 500 uM): 95 µmol/min/mg
Hill Constant ([3]; isocitrate, fit to Hill equation): 0.479

Molecule: Cc1c(/C=C2\Sc3ccccc3C2=O)c(O)n2c(nc3ccccc32)c1C#N
IC50 [9]: 25.4 µM
IC50 [10]: 64.1 µM
IC50 Ratio (40/4) [11]: 17.42

Molecule: R132H: recombinant IDH1 Arg132His mutant with C-terminal His8 tag expressed in E. coli
consumption of NADH in the presence of alpha-ketoglutarate [1, 15]: no measurable consumption of NADH
decrease in catalytic turnover [13]: 1000 fold

Molecule: Cn1nnc2c(C(N)=O)ncn2c1=O [temozolomide]
tolerability [14]: well tolerated

Molecule: O=C(O)CCC(O)C(=O)O (stereo not shown) [reaction product 2-HG, 2-hydroxyglutarate]
effect on the oxidative decarboxylation of isocitrate by wild-type ICDH1 [8]: inhibit

Molecule: O=C(O)CC[C@@H](O)C(=O)O [(R)-2-hydroxyglutarate]
effect on the oxidative decarboxylation of isocitrate by wild-type ICDH1 [8]: did not show any effect

Molecule: R132C
Ki [4]: 61 µM
kcat [4]: 710 s⁻¹
Km [4]: 87 mM
kcat ([5]; WT value estimated (est.)): 550 s⁻¹
Km ([5]; n/a indicates no measureable activity): 300 nM
